Values after ≈ are worked out from the molar mass of the structure shown. Like-named read-outs stand apart in the source and are kept apart here.
Key:
WT CFTR [1] = molecular target: T1, WT CFTR (Homo sapiens, UniProt P13569); test: Ensemble fitting of gating models (Schemes 3 and 4) to on-off current time courses; assay type: biochemical; settings: for EC50 / Kd: calculated from fit parameters; for kin: constrained kin/kout = 62580; for Kd: read-out: Kd;mem
T1 construct: expressed in transfected cells; host or cells: Xenopus laevis oocytes injected with cRNA transcribed from pGEMHE-CFTR
T1 sequence (P13569 whole entry): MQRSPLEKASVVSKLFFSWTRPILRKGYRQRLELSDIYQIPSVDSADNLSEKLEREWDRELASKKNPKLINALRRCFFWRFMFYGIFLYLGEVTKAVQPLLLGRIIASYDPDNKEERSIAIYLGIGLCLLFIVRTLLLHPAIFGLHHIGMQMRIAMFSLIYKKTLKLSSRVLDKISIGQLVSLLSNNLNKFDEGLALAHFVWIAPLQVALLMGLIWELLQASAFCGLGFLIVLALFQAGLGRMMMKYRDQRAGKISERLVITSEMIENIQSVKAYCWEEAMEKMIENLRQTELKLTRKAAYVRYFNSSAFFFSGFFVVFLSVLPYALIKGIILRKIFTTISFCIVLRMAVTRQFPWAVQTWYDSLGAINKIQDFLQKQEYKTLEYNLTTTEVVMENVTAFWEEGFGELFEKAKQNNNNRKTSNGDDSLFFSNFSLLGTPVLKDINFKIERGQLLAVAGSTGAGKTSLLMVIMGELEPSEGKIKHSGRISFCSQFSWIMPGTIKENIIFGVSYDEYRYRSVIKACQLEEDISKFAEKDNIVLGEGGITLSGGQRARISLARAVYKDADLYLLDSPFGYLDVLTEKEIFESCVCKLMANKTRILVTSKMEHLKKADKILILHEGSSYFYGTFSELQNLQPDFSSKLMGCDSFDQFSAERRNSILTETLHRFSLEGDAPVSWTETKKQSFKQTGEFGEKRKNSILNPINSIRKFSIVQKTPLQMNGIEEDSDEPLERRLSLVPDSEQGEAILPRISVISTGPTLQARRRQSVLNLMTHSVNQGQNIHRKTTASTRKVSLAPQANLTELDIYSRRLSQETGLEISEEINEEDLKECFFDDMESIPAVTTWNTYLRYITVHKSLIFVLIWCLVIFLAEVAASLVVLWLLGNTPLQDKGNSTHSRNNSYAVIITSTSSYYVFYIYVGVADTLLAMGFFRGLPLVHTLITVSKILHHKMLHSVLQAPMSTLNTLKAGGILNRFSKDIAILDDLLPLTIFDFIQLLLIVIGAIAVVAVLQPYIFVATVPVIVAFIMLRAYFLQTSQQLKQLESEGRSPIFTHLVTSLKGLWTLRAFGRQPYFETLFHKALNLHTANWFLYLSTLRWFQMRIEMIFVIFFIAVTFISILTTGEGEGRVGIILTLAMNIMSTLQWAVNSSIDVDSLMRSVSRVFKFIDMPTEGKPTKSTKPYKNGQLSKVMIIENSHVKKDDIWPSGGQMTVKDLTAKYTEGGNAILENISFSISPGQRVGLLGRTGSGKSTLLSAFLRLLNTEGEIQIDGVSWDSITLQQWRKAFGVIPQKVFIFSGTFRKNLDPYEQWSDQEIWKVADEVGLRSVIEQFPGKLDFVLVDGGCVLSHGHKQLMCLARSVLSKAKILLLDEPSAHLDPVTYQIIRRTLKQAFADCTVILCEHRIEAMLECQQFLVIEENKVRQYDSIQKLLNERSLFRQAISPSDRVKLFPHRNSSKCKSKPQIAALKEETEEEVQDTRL
Text: We next attempted to interpret the observed complex kinetics of the drug effects in terms of various molecular models (Figure 5a–d), by performing global fits of each model (Figure 5f, colored lines) to the ensemble of four experimentally observed current time courses: activation and deactivation upon addition and removal of 0.01x saturated (Figure 5f, gray trace) and 1x saturated (Figure 5f, black trace) Vx-770.
An alternative mechanism that could explain delayed activation by the drug is the presence of multiple drug binding sites, all of which must be occupied to switch the channel to a high open probability state. […] We therefore evaluated a simplistic model which postulates independent drug binding to two sites, with identical affinities, but a substantial change in open probability (from Po;bas to Po;max) only for diliganded channels (Scheme 3, Figure 5c).
Finally, assuming a two-compartment membrane and two drug-binding sites, both accessible from the outer leaflet (Scheme 4, Figure 5d), afforded a further small improvement (Figure 5f, red fit lines) relative to Scheme 3, albeit at the expense of an extra free parameter (Figure 5e, right).
The dynamic equations that describe the kinetic models depicted in Figure 5 are as follows:
• dx1(t)/dt = kin⋅Vc – 2⋅kout⋅x1(t) – kon'⋅(2⋅x2(t)+x3(t))⋅x1(t) + koff⋅(2⋅(Ct–x2(t)–x3(t))+x3(t)) • dx2(t)/dt = – 2⋅kon'⋅x1(t)⋅x2(t) + koff⋅x3(t) • dx3(t)/dt = 2⋅kon'⋅x1(t)⋅x2(t) + 2⋅koff⋅(Ct–x2(t)–x3(t)) – (koff +kon'⋅x1(t))⋅x3(t)
(§1) where x1(t) is the concentration of free Vx-770 in the membrane, x2(t) is the concentration of unliganded CFTR channels in the membrane, x3(t) is the concentration of monoliganded CFTR channels in the membrane, Ct is the total concentration of CFTR channels in the membrane, and Vc is the concentration of Vx-770 in the cytosol.
• dx1(t)/dt = kin⋅Vc – (kout +kflip)⋅x1(t) + kflip⋅x2(t) • dx2(t)/dt = kflip⋅x1(t) – (kout +kflip)⋅x2(t) – kon'⋅(2⋅x3(t)+x4(t))⋅x2(t) + koff⋅(2⋅(Ct–x3(t)–x4(t))+x4(t)) • dx3(t)/dt = – 2⋅kon'⋅x2(t)⋅x3(t) + koff⋅x4(t) • dx4(t)/dt = 2⋅kon'⋅x2(t)⋅x3(t) + 2⋅koff⋅(Ct–x3(t)–x4(t)) – (koff +kon'⋅x2(t))⋅x4(t)
as §1, with “x1(t) is the concentration of Vx-770 in the inner membrane leaflet, x2(t)” for “x1(t)”, “outer membrane leaflet, x3(t)” for “membrane, x2(t)”, “outer membrane leaflet, x4(t)” for “membrane, x3(t)”, “outer membrane leaflet,” for “membrane,”
To calculate the value of Ct, the total number of channels in the patch (N) was estimated by assuming Po;bas=0.16 for prephosphorylated channels in ATP (cf., Figure 2c). For Schemes 1 and 3 the volume of the membrane patch was taken as 10^−16 liter (assuming a macroscopic patch surface area of ~4 μm^2 increased by ~5 fold at a microscopic level due to the presence of microvilli ([Dascal, 1987]), and a membrane thickness of ~5 nm), and for Schemes 2 and 4 the volume of the outer membrane leaflet was taken as 5⋅10^−17 liter. Ct was then calculated as N/NA divided by the relevant volume (NA, Avogadro's number).
For the ensemble fitting, all experimental current traces were normalized to their steady-state values observed prior to exposure to Vx-770. Predicted normalized on- and off- current time courses for each model were calculated from the above dynamic equations by solving for the time-dependent evolution of the vector x, using a modified Euler's method ([Press, 1992]). For the on- time courses the initial values for all xi were set to zero, for the off- time courses the final x vector of the preceding on- time course served as the initial vector while Vc was set to zero. […]

[2] = Determination of Vx-770 solubility profile (incremental solvent addition; saturated saline, 1-octanol extraction, spectrophotometry at 311 nm); assay type: physicochemical; settings: aqueous saline (standard bath solution), read-out: aqueous solubility Saq
WT CFTR [3] = settings: cited from earlier work
[4] = Scheme 3, average of global fits to three pairs of time courses
[5] = Scheme 4, average of global fits to three pairs of time courses

For `CC(C)(C)c1cc(C(C)(C)C)c(NC(=O)c2c[nH]c3ccccc3c2=O)cc1O` [Vx-770, ivacaftor], the EC50 (WT CFTR [1]; Scheme 3, Figure 5f data set, read-out: K0.5;aq) was 0.74 nM, the kin (WT CFTR [1]; Scheme 3, average (mean ± S.E.M.) of global fits to three pairs of time courses) was 4034 ± 464 s⁻¹ and the “Po;max/Po;bas” value (WT CFTR [1]; [4]) was 3.935 ± 0.001. For the same molecule, the koff (WT CFTR [1]; [4]) was 0.00745 ± 0.000871 s⁻¹, the kon (WT CFTR [1]; [4]) was 870 ± 104 M⁻¹ s⁻¹ and the kout (WT CFTR [1]; [4]) was 0.06446 ± 0.00742 s⁻¹. The EC50 (WT CFTR [1]; Scheme 3, average of three fits, read-out: K0.5;aq) was 0.675 ± 0.0895 nM, the EC50 (WT CFTR [1]; Scheme 3, average of three fits, read-out: K0.5;mem) was 21100 ± 2800 nM and the Kd (WT CFTR [1]; Scheme 3, average of three fits) was 8.75 ± 1.16 µM. It also gave a koff (WT CFTR [1]; Scheme 3, global fit to data set of Figure 5f) of 0.00651 s⁻¹, an EC50 (WT CFTR [1]; Scheme 4, Figure 5f data set, read-out: K0.5;aq) of 0.72 nM and a kin (WT CFTR [1]; Scheme 4, average (mean ± S.E.M.) of global fits to three pairs of time courses) of 9794 ± 531 s⁻¹. The “Po;max/Po;bas” value (WT CFTR [1]; [5]) was 3.996 ± 0.007, the kflip (WT CFTR [1]; [5]) was 0.04408 ± 0.00583 s⁻¹ and the koff (WT CFTR [1]; [5]) was 0.01075 ± 9e-05 s⁻¹. For the same molecule, the kon (WT CFTR [1]; [5]) was 3700 ± 627 M⁻¹ s⁻¹, the kout (WT CFTR [1]; [5]) was 0.1565 ± 0.0085 s⁻¹ and the EC50 (WT CFTR [1]; Scheme 4, average of three fits, read-out: K0.5;aq) was 0.669 ± 0.0955 nM. The EC50 (WT CFTR [1]; Scheme 4, average of three fits, read-out: K0.5;mem) was 7500 ± 1460 nM, the Kd (WT CFTR [1]; Scheme 4, average of three fits) was 3.11 ± 0.605 µM and the koff (WT CFTR [1]; Scheme 4, global fit to data set of Figure 5f) was 0.0106 s⁻¹. The solubility ([2]; pH 7.1, 37°C, pH = 7.1, aqueous saline) was 0.138 ± 0.001 µM (≈ 0.0542 µg/mL), the solubility at 24 h ([2]; pH 7.4, 25°C, pH = 7.4, aqueous saline) was 0.05 ± 0.001 µM (≈ 0.0196 µg/mL) and the “maximal stimulation of WT CFTR channels” value (WT CFTR [3]; lower end of reported range, ref Cui and McCarty, 2015) was ~ 1.1 fold. The “reversibility of CFTR channel stimulation in cell-free patches” value (WT CFTR [3]; ref Jih and Hwang, 2013, Lin et al., 2016, Yeh et al., 2015, 2017, Wang et al., 2014, 2018) was “irreversible”, the EC50 (WT CFTR [3]; ref Van Goor et al., 2014, Langron et al., 2018, read-out: previously reported K0.5 for stimulation of WT CFTR) was ~300 nM and the “maximal stimulation of WT CFTR channels” value (WT CFTR [3]; upper end of reported range, ref Wang et al., 2018) was ~ 3 fold.
